BigSolDB 2.1

Cc1cc(Cl)cc(C(=O)O)c1N
solubility (mole fraction) (in acetone, 278.15 K): 0.0119
solubility (mole fraction) (in acetone, 283.15 K): 0.0131
solubility (mole fraction) (in acetone, 288.15 K): 0.0152
solubility (mole fraction) (in acetone, 293.15 K): 0.0175
solubility (mole fraction) (in acetone, 298.15 K): 0.0199
solubility (mole fraction) (in acetone, 303.15 K): 0.0227
solubility (mole fraction) (in acetone, 308.15 K): 0.0266
solubility (mole fraction) (in acetone, 313.15 K): 0.0315
solubility (mole fraction) (in acetone, 318.15 K): 0.0371
solubility (mole fraction) (in acetone, 323.15 K): 0.0436
solubility (mole fraction) (in acetonitrile, 278.15 K): 0.00122
solubility (mole fraction) (in acetonitrile, 283.15 K): 0.00126
solubility (mole fraction) (in acetonitrile, 288.15 K): 0.00139
solubility (mole fraction) (in acetonitrile, 293.15 K): 0.00154
solubility (mole fraction) (in acetonitrile, 298.15 K): 0.00173
solubility (mole fraction) (in acetonitrile, 303.15 K): 0.00198
solubility (mole fraction) (in acetonitrile, 308.15 K): 0.0023
solubility (mole fraction) (in acetonitrile, 313.15 K): 0.0027
solubility (mole fraction) (in acetonitrile, 318.15 K): 0.00331
solubility (mole fraction) (in acetonitrile, 323.15 K): 0.00423
solubility (mole fraction) (in ethanol, 278.15 K): 0.00708
solubility (mole fraction) (in ethanol, 283.15 K): 0.00736
solubility (mole fraction) (in ethanol, 288.15 K): 0.00758
solubility (mole fraction) (in ethanol, 293.15 K): 0.00807
solubility (mole fraction) (in ethanol, 298.15 K): 0.00867
solubility (mole fraction) (in ethanol, 303.15 K): 0.00934
solubility (mole fraction) (in ethanol, 308.15 K): 0.0103
solubility (mole fraction) (in ethanol, 313.15 K): 0.0114
solubility (mole fraction) (in ethanol, 318.15 K): 0.0129
solubility (mole fraction) (in ethanol, 323.15 K): 0.0144
solubility (mole fraction) (in ethyl acetate, 278.15 K): 0.00636
solubility (mole fraction) (in ethyl acetate, 283.15 K): 0.0067
solubility (mole fraction) (in ethyl acetate, 288.15 K): 0.0071
solubility (mole fraction) (in ethyl acetate, 293.15 K): 0.00769
solubility (mole fraction) (in ethyl acetate, 298.15 K): 0.00829
solubility (mole fraction) (in ethyl acetate, 303.15 K): 0.00933
solubility (mole fraction) (in ethyl acetate, 308.15 K): 0.0105
solubility (mole fraction) (in ethyl acetate, 313.15 K): 0.012
solubility (mole fraction) (in ethyl acetate, 318.15 K): 0.0138
solubility (mole fraction) (in ethyl acetate, 323.15 K): 0.0162
solubility (mole fraction) (in isopropanol, 278.15 K): 0.00728
solubility (mole fraction) (in isopropanol, 283.15 K): 0.00744
solubility (mole fraction) (in isopropanol, 288.15 K): 0.0077
solubility (mole fraction) (in isopropanol, 293.15 K): 0.00809
solubility (mole fraction) (in isopropanol, 298.15 K): 0.00856
solubility (mole fraction) (in isopropanol, 303.15 K): 0.00911
solubility (mole fraction) (in isopropanol, 308.15 K): 0.00977
solubility (mole fraction) (in isopropanol, 313.15 K): 0.0105
solubility (mole fraction) (in isopropanol, 318.15 K): 0.0114
solubility (mole fraction) (in isopropanol, 323.15 K): 0.0123
solubility (mole fraction) (in methanol, 278.15 K): 0.00128
solubility (mole fraction) (in methanol, 283.15 K): 0.00157
solubility (mole fraction) (in methanol, 288.15 K): 0.00199
solubility (mole fraction) (in methanol, 293.15 K): 0.00241
solubility (mole fraction) (in methanol, 298.15 K): 0.00305
solubility (mole fraction) (in methanol, 303.15 K): 0.00375
solubility (mole fraction) (in methanol, 308.15 K): 0.00452
solubility (mole fraction) (in methanol, 313.15 K): 0.00556
solubility (mole fraction) (in methanol, 318.15 K): 0.00672
solubility (mole fraction) (in methanol, 323.15 K): 0.00815
solubility (mole fraction) (in n-butanol, 278.15 K): 0.00553
solubility (mole fraction) (in n-butanol, 283.15 K): 0.0057
solubility (mole fraction) (in n-butanol, 288.15 K): 0.00609
solubility (mole fraction) (in n-butanol, 293.15 K): 0.00648
solubility (mole fraction) (in n-butanol, 298.15 K): 0.00729
solubility (mole fraction) (in n-butanol, 303.15 K): 0.0082
solubility (mole fraction) (in n-butanol, 308.15 K): 0.00931
solubility (mole fraction) (in n-butanol, 313.15 K): 0.0109
solubility (mole fraction) (in n-butanol, 318.15 K): 0.0131
solubility (mole fraction) (in n-butanol, 323.15 K): 0.016
solubility (mole fraction) (in n-hexane, 278.15 K): 0.000105
solubility (mole fraction) (in n-hexane, 283.15 K): 0.000166
solubility (mole fraction) (in n-hexane, 288.15 K): 0.000245
solubility (mole fraction) (in n-hexane, 293.15 K): 0.000343
solubility (mole fraction) (in n-hexane, 298.15 K): 0.000443
solubility (mole fraction) (in n-hexane, 303.15 K): 0.000558
solubility (mole fraction) (in n-hexane, 308.15 K): 0.000685
solubility (mole fraction) (in n-hexane, 313.15 K): 0.000821
solubility (mole fraction) (in n-hexane, 318.15 K): 0.000959
solubility (mole fraction) (in n-hexane, 323.15 K): 0.00113
solubility (mole fraction) (in n-propanol, 278.15 K): 0.00516
solubility (mole fraction) (in n-propanol, 283.15 K): 0.00552
solubility (mole fraction) (in n-propanol, 288.15 K): 0.00579
solubility (mole fraction) (in n-propanol, 293.15 K): 0.00646
solubility (mole fraction) (in n-propanol, 298.15 K): 0.0072
solubility (mole fraction) (in n-propanol, 303.15 K): 0.00803
solubility (mole fraction) (in n-propanol, 308.15 K): 0.00936
solubility (mole fraction) (in n-propanol, 313.15 K): 0.0109
solubility (mole fraction) (in n-propanol, 318.15 K): 0.0128
solubility (mole fraction) (in n-propanol, 323.15 K): 0.0153
